The source of these data is US7897636B2, “Sulfamide derivative useful for the treatment of epilepsy” (Janssen Pharmaceutica NV, priority 2007, dated 2011).

For the test, the system named is MES-induced seizure. Nature of the test: Maximal Electroshock Test (MES), anticonvulsant activity. Format: in vivo, CF-1 male albino mice. How it is done:
Anticonvulsant activity was determined using the MES test, run according to the procedure described in detail below. Swinyard E A, Woodhead J H, White H S, Franklin M R. Experimental selection, quantification, and evaluation of anticonvulsants. In Levy R H, et al., eds. Antiepileptic Drugs. 3rd ed. New York: Raven Press, 1989:85-102 CF-1 male albino mice (25-35 g) were randomly selected into control and test groups, with the animals dosed with vehicle or test compound, at varying time-points and concentrations, respectively. On the study date, the mice were dosed by intraperitoneal (i.p.) injection with vehicle (30% Solutol) or test compound (50-250 mg/kg). Seizures were induced by trans-corneal electric shock using a 60-Hz alternating current, 50 mA, delivered for 0.2 sec. The mice in the test groups were subjected to electrical stimulus at time intervals between 15 minutes and 4 hours following administration of test compound. […] The test was complete when the entire course of the convulsion has been observed (typically, less than 1 minute after electrical stimulation). […] The ED50 value of the test compounds was the calculated dose required to block the hind limb tonic-extensor component of the MES-induced seizure in 50% of the rodents tested. […] Representative compounds of the present invention were tested according to the procedure described above, with results as listed in Table 1 below. Results are listed as (number of mice with full body tonic extension prevented)/(total number of mice tested) (@ a given time). ED50 values were determined at the time of peak effect (1 hr, Table 1).
In general terms: Protection in the maximal electroshock model is a classic sign of anticonvulsant action.

The mark [1] stands for this setting: 100 mg/kg i.p., 1.0 Hrs after dosing.
The mark [2] stands for this setting: 100 mg/kg i.p., 2 Hrs after dosing.
Setting [3] is: 200 mg/kg i.p., 0.25 Hrs after dosing.
Where [4] appears, read: 200 mg/kg i.p., 0.50 Hrs after dosing.
Where [5] appears, read: 200 mg/kg i.p., 1.0 Hrs after dosing.
Where [6] appears, read: 200 mg/kg i.p., 2 Hrs after dosing.
Where [7] appears, read: 200 mg/kg i.p., 4 Hrs after dosing.

In general, ED50 refers to the dose at which the effect has come halfway, by size or by number of responders. As to `NS(=O)(=O)NCc1c[s+]([O-])c2ccccc12` (single isomer, unassigned; (+)) [(+)-enantiomer, N-[(1-oxidobenzo[b]thien-3-yl)methyl]-sulfamide], the “MES Activity: (number of mice with full body tonic extension prevented)/(total number of mice tested)” value (shortened to “MES Activity”) is on record as 1/4 under setting [1]; 0/4 under setting [2]; 0/3 under setting [3]; 4/5 under setting [4]; 5/5 under setting [5]; 5/5 under setting [6]. The “MES Activity” value under setting [7] was 1/5. The ED50 (Mus musculus, ip, 1 h, mice, i.p., at time of peak effect (1 hr), probit analysis, read-out: ED50 (dose required to block the hind limb tonic-extensor component of the MES-induced seizure in 50% of the rodents)) stood at 127 mg/kg.
As to `NS(=O)(=O)NCc1c[s+]([O-])c2ccccc12` (single isomer, unassigned; (-)) [(−)-enantiomer, N-[(1-oxidobenzo[b]thien-3-yl)methyl]-sulfamide], the “MES Activity” value under setting [1] is reported as 2/4; the “MES Activity” value under setting [2] was 1/4; the “MES Activity” value under setting [3] is reported as 1/4; the “MES Activity” value under setting [4] was 2/5; the “MES Activity” value under setting [5] is 5/5; the “MES Activity” value under setting [6] is listed as 5/5. Also, under setting [7], the “MES Activity” value is 1/5.
